This is an account of results in PubChem BioAssay (NCI).

“And” between values parts separate entries of the source, which are not always exact repeats. Equal entries are not always repeated.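 Growth conditions: 96-well plates. Treatment: test compound, 48 hours, 5 concentrations. Analysis: linear interpolation between bracketing concentrations; unreached endpoints set to highest concentration. At the GI50, growth is halved. TGI: total growth inhibition.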 Bounds are passed on as bounds.

Common to all, as to assay: NCI tumour cell line growth inhibition, 48 h
In assay [1] the test system is CAKI-1 renal.
For assay [2], the system named is M14 melanoma.
In assay [3] the test system is OVCAR-3 ovarian.
In assay [4] the test system is RPMI-8226 leukemia.
The test system of assay [5] is SF-295 CNS.
The subject of assay [6] is SF-539 CNS.
Assay [7] has as its system SK-MEL-2 melanoma.
In assay [8] the test system is SK-OV-3 ovarian.
In assay [9] the test system is SNB-19 CNS.
For assay [10], the system named is SNB-75 CNS.

For `CC(C)c1cccc(O)c(=O)c1`, the GI50 was 2.97 µg/mL in assay [1]; 75 µg/mL in [2]; 2.5 µg/mL in assay [3]; 0.826 µg/mL in assay [4]; 2.52 µg/mL in assay [5]; 4.51 µg/mL in [6]. Besides, the results for the GI50 in assay [7] and in [9] were 6.86 µg/mL and 1.2 µg/mL, respectively. Besides, the TGI is > 75 µg/mL and > 57.5 µM in assay [2]; 71.6 µg/mL and > 100 µM in [5]; 32.4 µg/mL and 95.7 µM in assay [7]; > 100 µM in assay [8]; > 92.6 µM in [10].
In the case of `CC1(C)OC(=O)C(C#N)=C1C[n+]1ccccc1`, the TGI in assay [1], in assay [2], in [3], in assay [4], in [5] and in assay [6] was > 10 µM in each case. Further, the TGI in assay [7], in assay [8], in [9] and in [10] was > 10 µM each time.
Consider `C=C1SC(=Nc2ccccc2Cl)N(C(=O)c2sc3ccccc3c2Cl)C12CCCCC2`, for which the GI50 is 3.05 µM in assay [1]; 45.1 µM in assay [2]; 6.56 µM in [3]; 3.81 µM in [4]; 2.31 µM in assay [5]; 34.9 µM in assay [6]. For the same compound, the GI50 was 15.8 µM in [7], 13.9 µM in assay [8], 7.56 µM in assay [9] and 14 µM in assay [10]. Moreover, the TGI in [1] was > 100 µM; in assay [2], > 100 µM; in assay [3], 93.4 µM; in assay [4], 98.2 µM; in assay [5], 23 µM; in assay [6], > 100 µM. Moreover, the TGI in assay [7] is 58.8 µM; in assay [8] it was > 100 µM; in assay [9] it was > 100 µM; in assay [10] it was > 100 µM.
On to `CCOC(=O)C1=C(C)N(NC(N)=O)C2(N)N(NC(N)=O)C(C)=C(C(=O)OCC)C12C(=O)OCC` (stereo not drawn), for which the TGI in assay [1], in [2], in assay [3], in [4], in assay [5] and in assay [6] was > 100 µM in each case. In addition, the TGI in assay [7], in [8], in assay [9] and in [10] was > 100 µM throughout.
`CC([C@H]1CC=C2C3CCC4=C[C@@H](N(C)C)CC[C@]4(C)C3CC[C@@]21C)N(C)C` (stereo partly drawn): the GI50 is 2.49 µM in assay [1]; 1.76 µM in [2]; 2.45 µM in assay [3]; 1.91 µM in assay [4]; 1.79 µM in assay [5]; 1.4 µM in assay [6]. The GI50 in [7] is 8.23 µM; in [8], 3.86 µM; in assay [9] it was 7.57 µM; in assay [10], 3.3 µM. The TGI is 10.3 µM in assay [1]; 3.53 µM in [2]; 8.74 µM in [3]; 13 µM in [4]; 4.35 µM in assay [5]; 2.84 µM in assay [6]. Moreover, the TGI is 21 µM in [7], 11.6 µM in assay [8], 20.4 µM in assay [9] and 10.6 µM in assay [10].
In the case of `CC1CC(C)C2OC2(C)C[C@H](C)C(=O)NC(C)C(=O)N(C)[C@H](Cc2c(Br)[nH]c3ccccc23)C(=O)N[C@@H](c2ccc(O)cc2)CC(=O)O1` (stereo partly drawn), the TGI was found to be 4.71 µM in [1]; 19.5 µM in [2]; 9.61 µM in assay [3]; 5.43 µM in assay [4]; 31.3 µM in [5]; 0.383 µM in [6]. Further, the TGI in assay [7] came to 0.876 µM; in assay [8] it was 3.04 µM; in assay [9] it was 0.544 µM; in assay [10], 2.32 µM.
Regarding `CCCN(CCC)C(=O)c1nc(N)nc(-c2ccc(OC)cc2)c1-c1ccc(OC)cc1`, the TGI in assay [1], in assay [2], in assay [3], in assay [4], in assay [5] and in [6] was > 100 µM in each case. In addition, the TGI in assay [7], in assay [8], in [9] and in [10] was > 100 µM in each case.
Turning to `C[C@H]1CNC(=O)c2cnn3ccc(nc23)N[C@H](C)c2cc(F)ccc2O1`, the GI50 is 0.343 µM in [1]; 1.78 µM in [2]; 1.32 µM in assay [3]; 10.3 µM in assay [4]; 0.595 µM in assay [5]; 0.743 µM in [6]. In addition, the GI50 is 3.54 µM in assay [7], 0.641 µM in [8], 2.17 µM in [9] and 0.146 µM in assay [10]. The TGI was 1.59 µM in assay [1]; > 100 µM in assay [2]; 19.6 µM in assay [3]; 41.6 µM in assay [4]; 8.15 µM in assay [5]; 3.79 µM in assay [6]. Moreover, the TGI in [7] worked out at 24 µM; in [8], 10 µM; in assay [9], 47.4 µM; in assay [10], 1.05 µM.
As to `NC(N)=NC(N)=NCCCc1ccco1`, the GI50 in assay [1] was 92.4 µM; in [2], 53.6 µM; in [3] it was 114 µM; in [4], 23.7 µM; in [5], 163 µM; in assay [6] it was 108 µM. For the same compound, the GI50 in assay [7] is 47.5 µM; in assay [8], 142 µM; in assay [9] it was > 500 µM; in assay [10], 83.3 µM. Further, the TGI was 247 µM in assay [1]; 123 µM in [2]; 329 µM in assay [3]; 101 µM in assay [4]; > 500 µM in assay [5]; 268 µM in assay [6]. The TGI in assay [7] was 115 µM; in [8], > 500 µM; in assay [9], > 500 µM; in assay [10], 245 µM.
